Test results taken from ChEMBL document CHEMBL5512661, “Design, synthesis, and biological evaluation of 3-phenyl substituted pyridine derivatives as potential dual inhibitors of XOR and URAT1” (Eur J Med Chem, 2024).
Activity calls are given as the source filed them. No cut-off for these calls is given here.

Assays:
[1] = biological target: T1, Solute carrier family 22 member 12 (Homo sapiens, UniProt Q96S37); test: Inhibition of human URAT1 expressed in HEK293T cells using 6-carboxylic fluorescein substrate by fluorescence assay; type: cell-based
T1 sequence (Q96S37 whole entry): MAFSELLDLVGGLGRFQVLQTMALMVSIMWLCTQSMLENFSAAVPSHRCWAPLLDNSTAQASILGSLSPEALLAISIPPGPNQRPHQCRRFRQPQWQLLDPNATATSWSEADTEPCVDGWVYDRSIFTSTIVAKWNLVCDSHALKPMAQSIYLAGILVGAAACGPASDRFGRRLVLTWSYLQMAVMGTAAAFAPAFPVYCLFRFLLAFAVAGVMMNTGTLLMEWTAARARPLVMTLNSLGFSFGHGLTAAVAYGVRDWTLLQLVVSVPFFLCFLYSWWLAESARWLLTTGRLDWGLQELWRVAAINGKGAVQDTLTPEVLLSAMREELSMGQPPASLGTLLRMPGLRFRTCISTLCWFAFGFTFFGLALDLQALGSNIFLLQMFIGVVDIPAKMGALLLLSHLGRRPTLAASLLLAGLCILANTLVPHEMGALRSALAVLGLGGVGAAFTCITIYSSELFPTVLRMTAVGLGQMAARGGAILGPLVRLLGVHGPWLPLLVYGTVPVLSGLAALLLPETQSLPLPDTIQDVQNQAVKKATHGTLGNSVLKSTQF

[2] = biological target: Xanthine dehydrogenase/oxidase (Homo sapiens, UniProt P47989); test: Inhibition of XOR (unknown origin) using xanthine as substrate measured for 10 mins by spectrophotometry
[3] = biological target: T1, Solute carrier family 22 member 12; test: Inhibition of human URAT1 expressed in HEK293T cells using 6-carboxylic fluorescein substrate at 1000 uM by fluorescence assay; type: cell-based
Mus musculus [4] = test: Hypouricemic effect in potassium oxonate/hypoxanthine-induced acute hyperuricemia ICR mouse model assessed as decrease in serum uric acid level measured after 1 hr drug administration; type: functional, organism-based
Mus musculus [5] = test: Hypouricemic effect in potassium oxonate/hypoxanthine-induced acute hyperuricemia ICR mouse model assessed as decrease in serum uric acid level at 5 mg/kg, gavage measured after 3 to 9 hrs of drug administration; type: functional, organism-based; conditions: time 3-9 hrs
URAT1 (SLC22A12) = biological target: T2, URAT1 (SLC22A12) (Homo sapiens, UniProt Q96S37); test: Inhibition of human URAT1 expressed in HEK293T cells using 6-carboxylic fluorescein substrate at 100 uM by fluorescence assay relative to control; type: cell-based; conditions: HEK293T cells expressing human URAT1, probe 6-carboxylic fluorescein
T2 sequence (Q96S37 whole entry): T1 sequence (Q96S37 whole entry)

Xanthine dehydrogenase/oxidase, sequence (P47989 whole entry): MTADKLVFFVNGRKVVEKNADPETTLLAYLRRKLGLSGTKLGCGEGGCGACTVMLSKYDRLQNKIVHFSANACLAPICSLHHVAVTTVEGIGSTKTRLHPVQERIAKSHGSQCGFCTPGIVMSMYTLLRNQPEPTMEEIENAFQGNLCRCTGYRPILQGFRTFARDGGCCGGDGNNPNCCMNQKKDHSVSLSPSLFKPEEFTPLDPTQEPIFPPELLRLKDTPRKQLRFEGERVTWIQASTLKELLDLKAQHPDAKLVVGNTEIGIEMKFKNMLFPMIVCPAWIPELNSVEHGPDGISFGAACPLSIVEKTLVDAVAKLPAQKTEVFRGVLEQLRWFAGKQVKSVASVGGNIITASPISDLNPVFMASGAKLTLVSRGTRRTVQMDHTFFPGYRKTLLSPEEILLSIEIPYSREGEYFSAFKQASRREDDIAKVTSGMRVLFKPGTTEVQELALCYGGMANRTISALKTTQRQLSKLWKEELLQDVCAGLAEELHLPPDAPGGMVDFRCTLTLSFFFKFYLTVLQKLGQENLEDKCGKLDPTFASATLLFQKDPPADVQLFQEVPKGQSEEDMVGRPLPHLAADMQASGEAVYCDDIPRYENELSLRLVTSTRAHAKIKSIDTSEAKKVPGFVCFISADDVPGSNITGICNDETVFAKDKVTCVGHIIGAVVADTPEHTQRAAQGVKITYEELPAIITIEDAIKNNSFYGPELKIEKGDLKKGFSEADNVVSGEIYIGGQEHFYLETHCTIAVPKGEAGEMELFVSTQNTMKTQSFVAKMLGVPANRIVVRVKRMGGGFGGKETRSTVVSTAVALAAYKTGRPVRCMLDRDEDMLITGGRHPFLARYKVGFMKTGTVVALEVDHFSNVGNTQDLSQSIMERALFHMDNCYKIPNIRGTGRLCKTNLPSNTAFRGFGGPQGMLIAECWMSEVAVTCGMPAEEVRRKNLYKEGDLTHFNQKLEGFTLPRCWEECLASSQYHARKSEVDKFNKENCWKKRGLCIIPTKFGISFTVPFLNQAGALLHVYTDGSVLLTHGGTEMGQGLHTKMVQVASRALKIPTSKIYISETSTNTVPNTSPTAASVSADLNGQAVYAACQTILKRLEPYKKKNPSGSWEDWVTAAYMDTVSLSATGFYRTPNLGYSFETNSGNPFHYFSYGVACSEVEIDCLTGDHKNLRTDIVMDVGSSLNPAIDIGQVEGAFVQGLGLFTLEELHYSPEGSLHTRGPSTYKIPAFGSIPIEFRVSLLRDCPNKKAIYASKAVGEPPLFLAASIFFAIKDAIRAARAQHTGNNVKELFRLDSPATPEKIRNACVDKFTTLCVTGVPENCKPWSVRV

Compound	IC50 [1]	IC50 [2]	other results
CC(C)NC(=O)c1cncc(-c2ccc(O)c(C(=O)O)c2)c1	221 µM	80 µM	
O=C(O)c1ccc(-c2cncc(Nc3cccc(Cl)c3)c2)cc1O	12.9 µM	0.006 µM	
O=C(O)c1ccc(-c2cncc(Nc3ccc(Cl)cc3)c2)cc1O	57.8 µM	0.013 µM	
CC(C)NC(=O)c1cncc(-c2ccc(C(=O)O)c(O)c2)c1	547 µM	0.037 µM	
O=C(O)c1ccc(-c2cncc(Nc3ccc(F)c(Cl)c3)c2)cc1O	36.8 µM	0.016 µM	
O=C(O)c1ccc(-c2cncc(Nc3ccccc3)c2)cc1O	33.4 µM	0.026 µM	
CC(C)NC(=O)c1cncc(-c2ccc(C(=O)O)cc2)c1		0.59 µM	inhibition (INH) [3]: Not Active
CC(C)NC(=O)c1cncc(-c2cccc(C(=O)O)c2)c1		> 100 µM	inhibition (INH) [3]: Not Active
Cc1ccc(Nc2cncc(-c3ccc(C(=O)O)c(O)c3)c2)cc1C	53.6 µM	0.021 µM	
O=C(O)c1ccc(-c2cncc(Nc3ccc(F)cc3)c2)cc1O	91.2 µM	0.015 µM	
Cc1ccc(Nc2cncc(-c3ccc(C(=O)O)c(O)c3)c2)cc1Cl	51.7 µM	0.043 µM	
CC(C)(C)c1ccc(Oc2cncc(-c3ccc(C(=O)O)c(O)c3)c2)cc1	124 µM	0.121 µM	Activity (Mus musculus [4]): inactive; Activity (Mus musculus [5]): Active
CC(C)NC(=O)c1cncc(-c2ccc(F)c(C(=O)O)c2)c1	> 1000 µM	> 100 µM	
CC(C)NC(=O)c1cncc(-c2ccc(C#N)cc2)c1		75.4 µM	inhibition (INH) [3]: Not Active
Cc1nc(C)c(-c2csc(Nc3ccc(O)c(C(=O)O)c3)n2)s1		3.95 µM	inhibition at 100 µM (URAT1 (SLC22A12)): 35.5%
CCc1ccc(Nc2cncc(-c3ccc(C(=O)O)c(O)c3)c2)cc1	31.5 µM	0.026 µM	

Compound	IC50 [1]	IC50 [2]	other results
CCc1oc2ccccc2c1C(=O)c1cc(Br)c(O)c(Br)c1			Activity (Mus musculus [5]): Active
CC(C)NC(=O)c1cncc(-c2ccc(Cl)c(C(=O)O)c2)c1	> 1000 µM	> 100 µM	
O=C(O)c1ccc(-c2cncc(Oc3ccc(Cl)cc3)c2)cc1O	64.6 µM	0.038 µM	
O=C(O)c1ccc(-c2cncc(Nc3ccc(Cl)c(Cl)c3)c2)cc1O	80.7 µM	0.019 µM	
CC(=O)c1ccc(-c2cncc(C(=O)NC(C)C)c2)cc1		6.4 µM	inhibition at 100 µM (URAT1 (SLC22A12)): 15.6%
Cc1ccc(Nc2cncc(-c3ccc(C(=O)O)c(O)c3)c2)cc1F	30.6 µM	0.03 µM	
COc1ccc(Nc2cncc(-c3ccc(C(=O)O)c(O)c3)c2)cc1	58.3 µM	0.016 µM	
Cc1cccc(Nc2cncc(-c3ccc(C(=O)O)c(O)c3)c2)c1	56.9 µM	0.023 µM	
Cc1ccc(Nc2cncc(-c3ccc(C(=O)O)c(O)c3)c2)cc1	43.6 µM	0.004 µM	
O=C(O)c1ccc(-c2cncc(Oc3ccc(F)cc3)c2)cc1O	134 µM	0.04 µM	
CC(C)(C)c1ccc(Nc2cncc(-c3ccc(C(=O)O)c(O)c3)c2)cc1	70.3 µM	0.041 µM	
O=C(O)c1ccc(-c2cncc(Oc3ccccc3)c2)cc1O	86.7 µM	0.036 µM	Activity (Mus musculus [4]): inactive; Activity (Mus musculus [5]): Active
Cc1nc(-c2ccc(OCC(C)C)c(C#N)c2)sc1C(=O)O [FEBUXOSTAT]		0.008 µM	
O=C(O)c1ccc(-c2cncc(Oc3cccc(Cl)c3)c2)cc1O	55.9 µM	0.045 µM	
Cc1ccc(Oc2cncc(-c3ccc(C(=O)O)c(O)c3)c2)cc1	106 µM	0.035 µM	
Cc1cccc(Oc2cncc(-c3ccc(C(=O)O)c(O)c3)c2)c1	86.2 µM	0.026 µM	
